Laboratory results published in paper PMC11407758, “Integrated stress response (ISR) activation and apoptosis through HRI kinase by PG3 and other p53 pathway-restoring cancer therapeutics” (Oncotarget, 2024).
Peptide text beside a SMILES is read from it. * marks the point of attachment. Cbz = O=C(OCc1ccccc1)*; CH2F = FC*

Assays:
Type in all cases: cell-based, human
[1] = test system: cleaved caspase-8, -3, cleaved PARP and PUMA in HT29, SW480 and HCT116 p53−/− cells; test: Western blot, apoptosis markers in PG3-treated cells; conditions: co-treatment with PG3; HT29, SW480, HCT116 p53–/–
Experimental: Figure 5 PG3 induces apoptosis in p53-null and p53-mutant cancer cell lines. (A–E) Dose-response and time-course analysis of cleavage of caspase-8, -3, cleaved PARP and PUMA in PG3-treated HT29, SW480 and HCT116 p53^−/− cells by western blot using the indicated antibodies. (F–H) Flowcytometry analysis of cell death. (I) HT29 and HT29-PUMA^−/− and (J) SW480 cells were co-treated with PG3 and pan-caspase inhibitor Z-VAD-fmk for 48 h. (K) HCT116 p53^−/− cell were co-treated with PG3 and Z-VAD-fmk for 24 hours.
(§1) After treatment, protein lysates were collected for Western blot analysis. A total of 15 μg of protein was used for SDS-PAGE. After primary and secondary antibody incubations, the signal was detected by a chemiluminescence detection kit, imaged by Syngene (Imgen Technologies). Antibodies for NAG-1 (GDF15) and P53 were from Santa Cruz Biotechnology; for caspase 8, cleaved caspase 8, caspase 9, caspase 3, cleavage PARP, eIF2α, p-eIF2α (Ser51), CHOP, ATF4, DR5, and PUMA were from Cell Signaling Technology. Noxa and p21 were from Calbiochem. Ran was from BD Biosciences.

[2] = test system: GCN2, PKR, eIF2α, ATF4, CHOP in HT29 cells; test: Western blot, ISR kinases / eIF2α / ATF4 / CHOP; conditions: pre-treatment 2 hours, then ONC201 or PG3 for 24 hour
Experimental: Figure 7 PG3 induces upregulation of ATF4 through ISR via HRI. (A) HT29 cells were treated with PG3, GSK2606414, TG and ONC201 respectively, or co-treatment with PG3/GSK2606414, PG3/TG, and PG3/ONC201 for 15 h. (B) MEF, MEF^PERK−/− and MEF^GCN2−/− cells were treated with PG3 and ONC201 for 16 hours. (C) HT29 cells were transfected with siControl, siPKR, siHRI and siPKR/siHRI for 24 hours and then treated with PG3 for 16 hours. (D) HCT116 p53^−/− cells were transfected with siControl and siHRI for 24 hours and then treated with PG3 for 16 hours. (E) HCT116 p53^−/− cells were treated with PG3 and ONC201 for indicated times. (F) PANC1-sgCtrl, -sgHRI and -sgPKR cell lines were treated with PG3 and imipridones (ONC201, ONC206 and ONC212) for 16 hours. Western blot was performed using indicated antibodies. (G) Proposed model of PG3-induced cell apoptosis through HRI/ATF4/PUMA axis. Abbreviation: L.E.: Long exposure.
as §1
Supplementary Figure 2: ROS and NO are not responsible for PG3-induced HRI activation. (A, B) cells were pre-treated
with ZnPP, L-NMMA, SA and NAC for 2 hours respectively, and then ONC201 or PG3 was added to the medium for 24 hour treatment.
Western blot was performed using indicated antibodies.
(1 picture or pasted object on this page, not shown here)

TOV-112D (R175H) = test: Cell viability assay (CellTiterGlo), TOV-112D; conditions: TOV-112D, 6.67 μM
Experimental: (§2) Figure 1 PG3 inhibits cell proliferation and growth in a p53-indepent manner. (A–E) Cell viability assay, dose response curves and IC50 value measurements in a panel of cancer cell lines and normal cells. Cells were treated with different concentrations of PG3, PG3-Oc (Oc), obatoclax (Ob), prodigiosin (P) or DMSO for 72 h. Luciferase activity was imaged by the IVIS Imaging System after treatment. Cell viability data were normalized to those of DMSO treatment control in each cell line and data analyses were performed using PRISM4 software. IC50 data are expressed as the mean ±SD (normal; n = 3).
as §2, with “2 p53-dependent inhibition of” for “1 PG3 inhibits”, “is only observed at specific concentrations. (A–J)” for “and growth in a p53-indepent manner. (A–E)”, “ZMC1, CP-313908, APR-246, Ellipticine, Nutalin-3a” for “PG3, PG3-Oc (Oc), obatoclax (Ob), prodigiosin (P)”
(§3) Cells were seeded in 96-well plates (6 × 10^3 cells/well). Cells were treated with different concentrations of compounds or dimethyl sulfoxide (DMSO) as a control for 72 hours. The cell viability was assessed by CellTiterGlo bioluminescent cell viability assay (Promega), following the manufacturer’s protocol. Bioluminescence imaging was measured using the IVIS imager. The percentage of cell viability (mean ± SEM) at each dose was calculated against the respective DMSO control. The IC50 values were determined from the sigmoidal dose-response curves using GraphPad Prism.

HCT116 (P53−/−) = test: Cell viability assay (CellTiterGlo), HCT116 p53-/-
Experimental: as §2
as §2, with “2 p53-dependent inhibition of” for “1 PG3 inhibits”, “is only observed at specific concentrations. (A–J)” for “and growth in a p53-indepent manner. (A–E)”, “ZMC1, CP-313908, APR-246, Ellipticine, Nutalin-3a” for “PG3, PG3-Oc (Oc), obatoclax (Ob), prodigiosin (P)”
as §3

HCT116 (WT) = test: Cell viability assay (CellTiterGlo), HCT116 WT; conditions: 72 h, CellTiterGlo
Experimental: as §2
as §2, with “2 p53-dependent inhibition of” for “1 PG3 inhibits”, “is only observed at specific concentrations. (A–J)” for “and growth in a p53-indepent manner. (A–E)”, “ZMC1, CP-313908, APR-246, Ellipticine, Nutalin-3a” for “PG3, PG3-Oc (Oc), obatoclax (Ob), prodigiosin (P)”
as §3

HCT116 (R175H) = test: Cell viability assay (CellTiterGlo), HCT116 R175H
Experimental: as §2
as §2, with “2 p53-dependent inhibition of” for “1 PG3 inhibits”, “is only observed at specific concentrations. (A–J)” for “and growth in a p53-indepent manner. (A–E)”, “ZMC1, CP-313908, APR-246, Ellipticine, Nutalin-3a” for “PG3, PG3-Oc (Oc), obatoclax (Ob), prodigiosin (P)”
as §3

[3] = test system: HT29, TOV-112D, isogenic HCT116 cell lines, HFF-1 and MRC5; test: Cell viability assay, panel of cancer cell lines and normal cells (results in words)
Experimental: as §2, with “2 p53-dependent inhibition of” for “1 PG3 inhibits”, “is only observed at specific concentrations. (A–J)” for “and growth in a p53-indepent manner. (A–E)”, “ZMC1, CP-313908, APR-246, Ellipticine, Nutalin-3a” for “PG3, PG3-Oc (Oc), obatoclax (Ob), prodigiosin (P)”
as §3

[4] = test system: SW480 cells carrying a p53-responsive luciferase reporter; test: p53-responsive reporter assay; conditions: up to 60 μM, 6 hour and 15 hour time points
Experimental: SW480 cells carrying a p53-responsive luciferase reporter were used for assay of functional restoration of mutant p53. Cells were seeded in 96-well plates (5 × 10^4 cells/well) and were treated with compounds indicated for 6 and 15 h, respectively. Then, D-luciferin was added to each well with final concentration 100 μg/mL, and cells were imaged by using an IVIS Imaging System to detect luciferase activity.
p53-mutant SW480 human colon cancer cells, stably expressing a p53-responsive luciferase reporter, were used to assay functional restoration p53 pathway-dependent transcription in mutant p53-expressing tumor cells. Cells were seeded in 96-well plates (5 × 10^4 cells/well) and were treated with small-molecule compounds for 6 and 15 h, respectively. Then, D-luciferin was added to each well at a final concentration of 100 μg/mL, and cells were imaged by using an IVIS Imaging System (Xenogen) to detect luciferase activity.

ATF4 = test: Western blot, ATF4 induction; conditions: five cancer cell lines, 24 h
Experimental: (§4) Figure 4 Activation of ATF4 and up-regulation of typical p53 target genes. (A–E) Western blot analysis of p53 protein levels and upregulation of ATF4, PUMA, DR5 and p21. Cells were treated for 24 h with indicated compounds, concentrations and cell lines. Abbreviations: S.E.: Short exposure; L.E.: Long exposure.
as §1

p53 protein = test: Western blot, p53 protein levels
Experimental: Cells were treated for 24 h with indicated compounds, concentrations and cell lines. Abbreviations: S.E.: Short exposure; L.E.: Long exposure.
as §1

PUMA = test: Western blot, PUMA induction; conditions: HCT116 (p53 wild-type), 24 h
Experimental: as §4, §1

p21 = test: Western blot, p21 induction; conditions: 24 h
Experimental: as §4, §1

In the case of `COC(=O)C[C@H](NC(=O)[C@H](C)NC(=O)[C@@H](NC(=O)OCc1ccccc1)C(C)C)C(=O)CF` [Z-VAD-FMK] (Cbz-Val-Ala-Asp(OMe)-CH2F), the “effect on PG3-induced cleavage of PARP, caspase-8 and -3” value [1] is reported as “potently inhibits the cleavage of PARP, caspase-8, and -3”.
In the case of `[H]/N=C(/NC)NCCC[C@H](N)C(=O)O` [L-NMMA, N-Methyl-L-arginine acetate], the “effect on PG3- or ONC201-induced upregulation of ATF4” value [2] is reported as “do not attenuate or block”.
In the case of `COCC1(CO)C(=O)C2CCN1CC2` (stereo not shown) [APR-246], the inhibition of proliferation (TOV-112D (R175H)) is reported as “almost completely inhibited”, the IC50 (HCT116 (P53−/−); 72 h, CellTiterGlo) is reported as 11.3 µM and the “fold more sensitive than the p53 wild-type HCT116 cell line” value (HCT116 (P53−/−); p53-null HCT116 vs HCT116 WT, 'at a concentration of 20 μM') is reported as 2.9 fold. The IC50 (HCT116 (WT)) was 33 µM, the IC50 (HCT116 (R175H); 72 h, CellTiterGlo) was 8.87 µM and the “fold more sensitive than the p53 wild-type HCT116 cell line” value (HCT116 (R175H); p53-mutated R175H HCT116 vs HCT116 WT, 'at a concentration of 20 μM') was 3.7 fold. For the same molecule, the “inhibitory effects on normal cells” value ([3]; HFF-1 and MRC5, 0.08 μM) was “no detectable inhibitory effects”, the inhibition of proliferation ([3]; TOV-112D and HT29, 0.08 μM) was “potently inhibited” and the p53-responsive reporter activity [4] was “not able to activate the reporter”. The “upregulation of ATF4” value (ATF4) was “does not upregulate ATF4”, the “wild-type p53 protein level” value (p53 protein; HCT116, 24 h) was “no effect” and the “endogenous mutant p53 R273H protein level” value (p53 protein; HT29, 24 h) was “stabilizes”. The “endogenous mutant p53 R175H protein level” value (p53 protein; TOV-112D, 24 h) was “stabilizes”, the “exogenous mutant p53 R175H protein level” value (p53 protein; engineered HCT116-R175H cells, 24 h) was “does not stabilize” and the “upregulation of PUMA” value (PUMA) was “upregulates PUMA”. For the same molecule, the “upregulation of p21” value (p21; HCT116 (p53 wild-type)) was “slightly induces p21” and the “upregulation of p21” value (p21; TOV-112D) was “slightly induces p21”.
